Results taken from US10723998B2, “Application of ethyl p-methoxycinnamate and derivatives thereof in maintaining self-renewal and pluripotency of stem cells” (NORTHEAST NORMAL UNIVERSITY, priority 2015, dated 2020).

What was measured:
[1] = tested on: Oct4 promoter; assay: Oct4 promoter luciferase reporter assay (pGL3-Oct4P-Basic) in P19 cells; format: cell-based, mouse; conditions: 5 μg/mL, 12-24 h, DMSO control, FIG. 1
From the text: According to a method described in literature (Yang H M, Do H J, Oh J H, et al. Characterization of putative cis-regulatory elements that control the transcriptional activity of the human Oct4 promoter[J]. Journal of cellular biochemistry, 2005, 96(4):821-830), the promoter of Oct4 gene was picked and cloned into pGL3-Basic, so as to construct pGL3-Oct4P-Basic reporter plasmid. One day before transfection, mouse teratoma cells P19 were inoculated into a 6-well cell culture plate at a density of 2×10^5 cells/well to make the cells grown to about 80% before transfection. […]
Luciferase Reporter Assay System and FluoStar Optima were used to assay the luciferase activity of the transfected cell lysis solution. To 45 μL of the cell lysis solution was added 5 μL of Assay Cocktail reagent, after they were mixed well, 100 μL of Luciferin reaction solution was added, and fluorescence counting in 2 s was measured using FluoStar Optima instrument, which reflected the activity level of the studied plasmid reporter genes expressing firefly luciferase. […] An absorption value at 450 nm was assayed using a microplate reader, which reflected the activity level of internal reference plasmid pCMV-β-gal expressing β-galactosidase. […] The relative luciferase activity of different samples was calculated through the following equation: […]

[2] = tested on: mouse teratoma cells P19; assay: Formation of microspheres of adherently cultured stem cells; format: cell-based; conditions: 5 μg/mL, 3% fetal calf serum DMEM, 22 d, compared with control, FIG. 5
Method: In a super clean bench, mouse teratoma cells P19 were inoculated in a 6-well plate at a density of 1×10^4 cells/well, and DMEM culture medium containing 10% fetal calf serum was added to result in a final volume of 2 mL. The cell culture plate was gently shaken, so that the cells were uniformly distributed in the cell culture plate, and then placed in a cell incubator to be cultured. After 24 h, the old culture medium were discarded, and 3% fetal calf serum DMEM culture medium containing ethyl p-methoxycinnamate was added, so that the final concentration of ethyl p-methoxycinnamate was 5 μg/mL. The original culture medium was discarded every 24 h, and fresh DMEM culture medium containing 3% fetal calf serum was added, and the final concentration of ethyl p-methoxycinnamate therein was made to be 5 μg/mL likewise. After continuous culture of 22 d, the cells were photographed.

CCOC(=O)C=Cc1ccc(OC)cc1 [ethyl p-methoxycinnamate]
effect on the activity of Oct4 promoter (relative luciferase activity) [1]: reached a statistically significant difference (*p<0.05)
formation of microspheres of adherently cultured stem cells [2]: the P19 cells can form typical microspheres
